Measurements reported in BindingDB's records for PubMed 10087012 (Medical College of Georgia, 1999).

molecular target: Sigma non-opioid intracellular receptor 1 (Homo sapiens, UniProt Q99720)
Sequence (Q99720 whole entry): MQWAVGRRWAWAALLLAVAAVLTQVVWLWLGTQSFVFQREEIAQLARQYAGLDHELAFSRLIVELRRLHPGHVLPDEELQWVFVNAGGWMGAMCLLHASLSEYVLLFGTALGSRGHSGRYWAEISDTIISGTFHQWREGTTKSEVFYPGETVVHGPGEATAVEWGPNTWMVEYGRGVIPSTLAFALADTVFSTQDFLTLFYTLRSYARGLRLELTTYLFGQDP

Going from `O=c1[nH]c2nccn2c2c1ncn2C1CC(O)C(COP(=O)(O)OP(=O)(O)OP(=O)(O)O)O1` (centres undefined) [CAS_85976-54-1] to `COc1ccc2c(c1)C13CCCCC1C(C2)N(C)CC3` (centres undefined) [Levomethorpan], the Ki rises from 0.042 µM to 0.521 µM (12-fold).

`C#CCN(C)CCCOc1ccc(Cl)cc1Cl` [US8633208, Clorgyline] and `CCN(CC)CCOCCOC(=O)C1(c2ccccc2)CCCC1` [SMR000326757] are within 1.5-fold of each other in Ki: 0.0087 µM for the first, 0.0104 µM for the second.
